# ChEMBL document CHEMBL4261543, “Integrating docking scores and key interaction profiles to improve the accuracy of molecular docking: towards novel B-RafV600E inhibitors” (Medchemcomm, 2017)
# Molecular target: Serine/threonine-protein kinase B-raf (Homo sapiens, UniProt P15056, V600E)
# Assay: Inhibition of B-Raf V600E mutant (unknown origin) using fluorescein-MAP2K1 as substrate after 1 hr by electrophoretic assay
# Chain of Serine/threonine-protein kinase B-raf (P15056 2-766 V600E limits assumed): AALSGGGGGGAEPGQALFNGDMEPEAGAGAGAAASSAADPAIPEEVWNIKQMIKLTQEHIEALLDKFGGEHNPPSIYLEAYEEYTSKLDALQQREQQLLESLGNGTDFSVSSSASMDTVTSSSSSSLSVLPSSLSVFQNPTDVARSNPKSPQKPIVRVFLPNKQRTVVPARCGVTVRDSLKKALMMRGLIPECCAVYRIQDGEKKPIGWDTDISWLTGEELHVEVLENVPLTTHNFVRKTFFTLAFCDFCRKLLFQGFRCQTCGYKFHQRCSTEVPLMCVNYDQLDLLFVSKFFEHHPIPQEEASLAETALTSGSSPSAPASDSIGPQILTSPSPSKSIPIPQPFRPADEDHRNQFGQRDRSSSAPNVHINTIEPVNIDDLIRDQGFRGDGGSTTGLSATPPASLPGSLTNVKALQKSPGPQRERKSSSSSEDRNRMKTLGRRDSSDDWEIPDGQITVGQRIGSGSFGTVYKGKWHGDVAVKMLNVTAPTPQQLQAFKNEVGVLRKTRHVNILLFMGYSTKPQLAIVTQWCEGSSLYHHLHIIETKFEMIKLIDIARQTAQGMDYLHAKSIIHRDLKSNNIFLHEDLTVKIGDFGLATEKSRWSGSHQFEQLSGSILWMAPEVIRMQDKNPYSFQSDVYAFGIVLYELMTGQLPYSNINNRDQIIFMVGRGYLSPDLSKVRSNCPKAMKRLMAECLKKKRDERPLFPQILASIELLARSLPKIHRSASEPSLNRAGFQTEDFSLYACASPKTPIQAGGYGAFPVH
row,SMILES,IC50 [nM]
1,CCCS(=O)(=O)Nc1ccc(Cl)c(C(=O)Nc2cnc3[nH]cc(OC)c3c2)c1F,1.7
2,CCCS(=O)(=O)Nc1ccc(F)c(C(=O)Nc2cnc3[nH]cc(OC)c3c2)c1F,4.8
3,CCCS(=O)(=O)Nc1ccc(F)c(C(=O)Nc2cnc3[nH]cnc3c2)c1C,61
4,O=c1c(O)c(-c2ccc(O)c(O)c2)oc2cc(O)cc(O)c12 [QUERCETIN],7590
5,CCCS(=O)(=O)Nc1ccc(F)c(C(=O)Nc2cnc3[nH]cc(Br)c3c2)c1F,3.4 to 4
6,CCCS(=O)(=O)Nc1ccc(Cl)c(C(=O)Nc2cnc3[nH]ccc3c2)c1F,6.3
7,CCCS(=O)(=O)Nc1ccc(F)c(C(=O)Nc2cnc3[nH]cc(C)c3c2)c1F,12
8,CCCS(=O)(=O)Nc1ccc(F)c(C(=O)Nc2cnc3[nH]cc(N(C)C)c3c2)c1F,8.2
9,O=c1c(O)c(-c2cc(O)c(O)c(O)c2)oc2cc(O)cc(O)c12 [MYRICETIN],1560
10,CCCS(=O)(=O)Nc1ccc(F)c(C(=O)Nc2cnc3[nH]ccc3c2)c1F,17
11,CCCS(=O)(=O)Nc1ccc(F)c(C(=O)Nc2cnc3[nH]ccc3c2)c1C,38
12,CCCS(=O)(=O)Nc1ccc(F)c(C(=O)Nc2ccc(N)nc2)c1F,917 to 920

# Test system: Serine/threonine-protein kinase B-raf (Homo sapiens), P15056 [V600E]
# Assay: Inhibition of B-Raf V600E mutant (unknown origin) at 10 uM using fluorescein-MAP2K1 as substrate after 1 hr by electrophoretic assay relative to control
# Chain of Serine/threonine-protein kinase B-raf (Homo sapiens), P15056 [V600E] (P15056 whole entry V600E): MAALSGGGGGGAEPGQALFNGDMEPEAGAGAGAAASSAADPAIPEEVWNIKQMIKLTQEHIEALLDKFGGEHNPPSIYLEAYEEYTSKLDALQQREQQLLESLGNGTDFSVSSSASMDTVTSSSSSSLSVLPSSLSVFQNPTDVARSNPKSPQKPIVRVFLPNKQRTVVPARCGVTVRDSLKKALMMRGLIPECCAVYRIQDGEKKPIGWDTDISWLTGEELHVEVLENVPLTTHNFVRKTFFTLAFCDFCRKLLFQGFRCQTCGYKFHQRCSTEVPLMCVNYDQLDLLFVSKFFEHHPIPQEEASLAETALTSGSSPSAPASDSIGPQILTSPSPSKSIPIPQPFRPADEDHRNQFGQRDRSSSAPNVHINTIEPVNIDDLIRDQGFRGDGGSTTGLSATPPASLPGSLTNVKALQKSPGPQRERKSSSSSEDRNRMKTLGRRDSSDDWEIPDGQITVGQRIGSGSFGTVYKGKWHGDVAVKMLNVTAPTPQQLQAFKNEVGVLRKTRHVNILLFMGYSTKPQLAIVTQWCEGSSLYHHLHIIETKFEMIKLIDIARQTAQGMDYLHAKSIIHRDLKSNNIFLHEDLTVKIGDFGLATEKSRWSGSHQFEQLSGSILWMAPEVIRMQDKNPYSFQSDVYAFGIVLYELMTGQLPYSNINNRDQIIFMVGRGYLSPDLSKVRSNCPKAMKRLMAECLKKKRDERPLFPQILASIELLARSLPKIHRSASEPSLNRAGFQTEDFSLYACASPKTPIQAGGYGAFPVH
row,SMILES,inhibition [%]
1,CCCS(=O)(=O)Nc1ccc(F)c(-c2cc3cnc(NC4CCOCC4)nc3n(C)c2=O)c1F,> 40
2,C[C@@H](NC1=CC(=O)CNC1)c1ccc(Nc2ncc3cc(-c4ccncc4)ccc3n2)cc1,> 40
3,c1cc(-c2ccc3nc(Nc4ccc(OCCN5CCCC5)cc4)ncc3c2)ccn1,> 40
4,CN1CCCC1CCNC(=O)c1ccc(Nc2ncc3cc(-c4ccncc4)ccc3n2)cc1 (stereo unspecified),> 40
5,CCCS(=O)(=O)Nc1ccc(Cl)c(C(=O)Nc2cnc3[nH]cc(OC)c3c2)c1F,> 40
6,CCCS(=O)(=O)Nc1ccc(F)c(NC(=O)c2csc3c(N)ncnc23)c1Cl,> 40
7,CC(=O)N[C@H](C)c1ccc(Nc2ncc3cc(-c4ccncc4)c(C)cc3n2)cc1,> 40
8,CC(=O)Nc1ccc(Nc2ncc3cc(-c4ccncc4)ccc3n2)cc1,> 40
9,CCCS(=O)(=O)Nc1ccc(F)c(-c2cc3cnc(NCCO)nc3n(C)c2=O)c1F,> 40
10,COCCNC(=O)c1ccc(Nc2ncc3cc(-c4ccncc4)ccc3n2)cc1F,> 40
11,CCCS(=O)(=O)Nc1ccc(F)c(C(=O)Nc2cnc3[nH]cc(OC)c3c2)c1F,> 40
12,CCCS(=O)(=O)Nc1ccc(F)c(C(=O)Nc2cnc3[nH]cnc3c2)c1C,> 40
13,CC(C)c1nc(-c2ccc(F)c(NS(=O)(=O)c3c(F)cccc3F)c2)c(-c2ccnc(NCCS(C)(=O)=O)n2)s1,> 40
14,COCCNC(=O)c1ccc(Nc2ncc3cc(-c4ccccc4)ccc3n2)cc1,> 40
15,CCCS(=O)(=O)Nc1ccc(F)c(NC(=O)Nc2ncnc3[nH]ncc23)c1F,> 40
16,COCCNC(=O)c1ccc(Nc2ncc3cc(-c4cncnc4)ccc3n2)cc1,> 40
17,CC(C)c1nc(-c2ccc(F)c(NS(=O)(=O)c3c(F)cccc3F)c2)c(-c2ccnc(Nc3ccc(N4CCOCC4)nc3)n2)s1,> 40
18,CC(C)(C)c1nc(-c2cccc(NS(=O)(=O)c3c(F)cccc3F)c2F)c(-c2ccnc(N)n2)s1,> 40
19,CCCS(=O)(=O)Nc1ccc(F)c(NC(=O)Nc2ncnc3[nH]nc(OC)c23)c1F,> 40
20,CN(C)CCNC(=O)c1ccc(Nc2ncc3cc(-c4ccncc4)ccc3n2)cc1,> 40
21,CC(C)c1nc(-c2cccc(NS(=O)(=O)c3cccc(F)c3)c2)c(-c2ccnc(NCC(N)=O)n2)s1,> 40
22,CCCS(=O)(=O)Nc1ccc(F)c(C(=O)Nc2cnc3[nH]cc(Br)c3c2)c1F,> 40
23,CCCS(=O)(=O)Nc1ccc(Cl)c(C(=O)Nc2cnc3[nH]ccc3c2)c1F,> 40
24,O=C(NCCN1CCCC1)c1ccc(Nc2ncc3cc(-c4ccncc4)ccc3n2)cc1,> 40
25,Nc1ncnc2c(C(=O)Nc3c(Cl)ccc(NS(=O)(=O)CCCF)c3F)cccc12,> 40

row,SMILES,inhibition [%]
1,CCCS(=O)(=O)Nc1ccc(F)c(-c2cc3cnc(NCCCO)nc3n(C)c2=O)c1F,> 40
2,CCCS(=O)(=O)Nc1ccc(F)c(C(=O)Nc2cnc3[nH]cc(C)c3c2)c1F,> 40
3,C[C@@H](NC(=O)[C@H]1CCCCN1C)c1ccc(Nc2ncc3cc(-c4ccncc4)ccc3n2)cc1,> 40
4,COCCNC(=O)c1ccc(Nc2ncc3cc(-c4cccnc4)ccc3n2)cc1,> 40
5,CCCS(=O)(=O)Nc1ccc(F)c(-c2cc3cnc(NCC4CC4)nc3n(C)c2=O)c1F,> 40
6,CCCS(=O)(=O)Nc1ccc(F)c(C(=O)c2c[nH]c3ncc(-c4ccc(Cl)cc4)cc23)c1F,> 40
7,CC(C)c1nc(-c2cccc(NS(=O)(=O)c3c(F)cccc3F)c2)c(-c2ccnc(N)n2)s1,> 40
8,CCCS(=O)(=O)Nc1ccc(F)c(NC(=O)c2csc3c(N)ncnc23)c1F,> 40
9,CCCS(=O)(=O)Nc1ccc(Cl)c(NC(=O)c2csc3c(N)ncnc23)c1F,> 40
10,CCCS(=O)(=O)Nc1ccc(F)c(-c2cc3cnc(Nc4cnn(C)c4)nc3n(C)c2=O)c1F,> 40
11,CCCS(=O)(=O)Nc1ccc(F)c(-c2ccc3ccncc3c2)c1F,> 40
12,CCCS(=O)(=O)Nc1ccc(F)c(-c2cc3cnccc3n(CCc3ccccc3)c2=O)c1F,> 40
13,CCCS(=O)(=O)Nc1ccc(F)c(C(=O)Nc2cnc3[nH]cc(N(C)C)c3c2)c1F,> 40
14,CCCS(=O)(=O)Nc1ccc(F)c(-c2ccc3nc(N)ncc3c2)c1F,> 40
15,C[C@@H](NC(=O)[C@H]1CCCCN1CCO)c1ccc(Nc2ncc3cc(-c4ccncc4)ccc3n2)cc1,> 40
16,CCCS(=O)(=O)Nc1ccc(F)c(NC(=O)Nc2cc(N)ncn2)c1F,> 40
17,CCCS(=O)(=O)Nc1ccc(F)c(NC(=O)c2cccc3c(N)ncnc23)c1Cl,> 40
18,CCCS(=O)(=O)Nc1ccc(F)c(NC(=O)N(C)c2cc(N)ncn2)c1F,> 40
19,CCCS(=O)(=O)Nc1ccc(F)c(-c2cc3cnc(Nc4ccccc4)nc3n(C)c2=O)c1F,> 40
20,COCCOc1ccc(Nc2ncc3cc(-c4ccncc4)ccc3n2)cc1,> 40
21,CCCS(=O)(=O)Nc1ccc(F)c(-c2cc3cnccc3cn2)c1F,> 40
22,COCCNC(=O)c1ccc(Nc2ncc3cc(-c4ccc(F)nc4)ccc3n2)cc1,> 40
23,C[C@@H](NC(=O)C1CCNCC1)c1ccc(Nc2ncc3cc(-c4ccncc4)ccc3n2)cc1,> 40
24,CCCS(=O)(=O)Nc1ccc(F)c(-c2cc3cncc(Br)c3cn2)c1F,> 40
25,CCCS(=O)(=O)Nc1ccc(Cl)c(NC(=O)c2cccc3c(N)ncnc23)c1F,> 40

row,SMILES,inhibition [%]
1,COCCNC(=O)c1ccc(Nc2ncc3cc(-c4ccncc4OC)ccc3n2)cc1,> 40
2,CCCS(=O)(=O)Nc1ccc(F)c(-c2cc3cnc(N)nc3n(C)c2=O)c1F,> 40
3,CCCS(=O)(=O)Nc1ccc(C)c(-c2ccc3nc(N)ncc3c2)c1,> 40
4,Nc1ncnc2c(C(=O)Nc3c(Cl)ccc(NS(=O)(=O)CCCF)c3F)csc12,> 40
5,COCCNC(=O)c1ccc(Nc2ncc3cc(-c4ccncc4C)ccc3n2)cc1,> 40
6,CCCS(=O)(=O)Nc1ccc(F)c(-c2ccc3cc(N)ncc3c2)c1F,> 40
7,COCCNC(=O)c1ccc(Nc2ncc3cc(-c4ccnc(C)c4)ccc3n2)cc1,> 40
8,CCCS(=O)(=O)Nc1ccc(F)c(C(=O)Nc2cnc3[nH]ccc3c2)c1F,> 40
9,CCCS(=O)(=O)Nc1ccc(F)c(NC(=O)c2cccc3c(N)ncnc23)c1F,> 40
10,CC(C)c1nc(-c2cccc(NS(=O)(=O)c3cccc(F)c3)c2)c(-c2ccnc(NCCCN(C)C)n2)s1,> 40
11,CCCS(=O)(=O)Nc1ccc(F)c(-c2ccc3ccncc3n2)c1F,> 40
12,CC(C)(C)c1nc(-c2cccc(NS(=O)(=O)c3cc(F)ccc3F)c2)c(-c2ccnc(N)n2)s1,> 40
13,CCCS(=O)(=O)Nc1ccc(F)c(NC(=O)Nc2cc(NC)ncn2)c1F,> 40
14,CCCS(=O)(=O)Nc1ccc(F)c(C(=O)Nc2cnc3[nH]nc(OC)c3c2)c1F,> 40
15,CC(=O)N[C@H](C)c1ccc(Nc2ncc3cc(-c4ccncc4)cc(Cl)c3n2)cc1,> 40
16,COCCNC(=O)c1ccc(Nc2ncc3cc(-c4ccncc4Cl)ccc3n2)cc1,> 40
17,CCCS(=O)(=O)Nc1ccc(F)c(-c2cc3cnc(Nc4cccnc4)nc3n(C)c2=O)c1F,> 40
18,CC(=O)N(C)c1ccc(Nc2ncc3cc(-c4ccncc4)ccc3n2)cc1,> 40
19,COCCNC(=O)c1ccc(Nc2ncc3cc(-c4ccc(OC)nc4)ccc3n2)cc1,> 40
20,CC(C)c1nc(-c2cccc(NS(=O)(=O)c3c(F)cccc3F)c2)c(-c2ccnc(NCCS(C)(=O)=O)n2)s1,> 40
21,CCCS(=O)(=O)Nc1ccc(F)c(-c2cc3cnc(NC)nc3n(C)c2=O)c1F,> 40
22,CCCS(=O)(=O)Nc1ccc(F)c(C(=O)Nc2cnc3[nH]ccc3c2)c1C,> 40
23,CCCS(=O)(=O)Nc1ccc(F)c(C(=O)Nc2ccc(N)nc2)c1F,> 40
24,CCCS(=O)(=O)Nc1ccc(F)c(-c2cc3cnccc3c(=O)n2C)c1F,> 40
